From US20210300924A1, “5-[6-[[3-(4,5,6,7-TETRAHYDROPYRAZOLO[4,3-C]PYRIDIN-1-YL)AZETIDIN-1-YL]METHYL]MORPHOLIN-4-YL]QUINOLINE-8-CARBONITRILE DERIVATIVES AND SIMILAR COMPOUNDS AS TLR7-9 ANTAGONISTS FOR TREATING SYSTEMIC LUPUS ERYTHEMATOSUS” (Hoffmann-La Roche Inc., priority 2018, published 2021)

Columns and labels:
[1] = target: T1, TLR9 (Homo sapiens, UniProt Q9NR96); experiment: Human PBMC cell-based assay; design: endogenous in cells; host or cells: human PBMC from healthy donor whole blood; settings: CpG ODN 2216 stimulation, overnight, cytokine readout, read-out: hPBMC/TLR9 IC50
T1 sequence (Q9NR96 26-1032): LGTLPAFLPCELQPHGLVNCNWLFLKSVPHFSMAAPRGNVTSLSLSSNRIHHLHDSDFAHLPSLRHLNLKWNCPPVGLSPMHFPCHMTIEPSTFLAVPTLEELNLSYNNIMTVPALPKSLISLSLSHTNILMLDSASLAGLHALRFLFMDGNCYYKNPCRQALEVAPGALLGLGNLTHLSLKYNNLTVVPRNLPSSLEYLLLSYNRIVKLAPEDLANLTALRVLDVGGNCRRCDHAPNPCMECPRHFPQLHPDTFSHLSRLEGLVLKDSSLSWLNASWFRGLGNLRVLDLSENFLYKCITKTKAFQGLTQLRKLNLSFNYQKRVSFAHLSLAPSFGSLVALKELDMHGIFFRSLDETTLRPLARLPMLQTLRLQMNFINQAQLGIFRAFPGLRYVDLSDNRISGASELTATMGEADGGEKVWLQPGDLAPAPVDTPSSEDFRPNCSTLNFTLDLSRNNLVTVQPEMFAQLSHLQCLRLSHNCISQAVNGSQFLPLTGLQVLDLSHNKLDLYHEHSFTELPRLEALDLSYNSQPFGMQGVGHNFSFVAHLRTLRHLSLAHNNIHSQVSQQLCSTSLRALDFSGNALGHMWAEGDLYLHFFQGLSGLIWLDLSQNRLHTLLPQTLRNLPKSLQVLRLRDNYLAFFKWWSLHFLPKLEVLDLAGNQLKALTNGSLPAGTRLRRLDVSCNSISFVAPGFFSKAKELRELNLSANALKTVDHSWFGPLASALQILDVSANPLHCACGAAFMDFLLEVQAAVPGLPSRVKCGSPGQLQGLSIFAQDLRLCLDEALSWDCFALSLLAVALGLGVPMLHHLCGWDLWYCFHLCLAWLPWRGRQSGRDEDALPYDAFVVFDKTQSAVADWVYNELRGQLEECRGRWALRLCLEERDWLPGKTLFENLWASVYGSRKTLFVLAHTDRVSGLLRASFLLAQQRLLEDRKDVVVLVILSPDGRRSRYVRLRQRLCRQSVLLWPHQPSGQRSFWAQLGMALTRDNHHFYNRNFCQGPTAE
Source text: Human PBMC Cell-Based Assay
Unlike the HEK reporter cell lines, human peripheral blood mononuclear cell (PBMC) represents primary human immune cells in blood mainly consisting of lymphocytes, monocytes, and dendritic cells. These cells express TLR7, TLR8, or TLR9, and therefore are natural responders to respective ligand stimulation. Upon activation of these TLRs, PBMCs secrete similar cytokines and chemokines in vitro and in vivo, and therefore the in vitro potency of a TLR7/8/9 antagonist in human PBMC is readily translatable to its pharmacodynamics response in vivo.
Human peripheral blood mononuclear cells (PBMC) were isolated from freshly-drawn lithium-heparinized (Lithium Heparin Plus blood Collection tube, BD Vacutainer®) healthy donor whole blood by density gradient (Ficoll-Paque™ PLUS, GE Healthcare life Sciences). Briefly, […] was diluted with 25 mL PBS (without Ca^2+, Mg^2+) in a 50 mL conical tube with porous barrier (Leucosep tube, Greiner bio-one), where 15.5 mL Ficoll-Paque was under laid after spinning. Tubes were centrifuged for 20 minutes at 800×g (1946 rpm) with the brake in the off position, and PBMC were collected from the buffy coat. Cells were then washed twice in PBS, and red blood cells were lysed by suspension in 2 mL (Red Blood Cell Lysis Buffer, Alfa Aesar) for 5-10 minutes at room temperature. After a final wash in PBS, PBMC were resuspended at a final concentration of 2×10^6 cells/mL in RPMI-1640 media with GlutaMAX™ (Gibco) supplemented with 10% Fetal Bovine Serum (Sigma) and plated at 150 μL/well (3×10^5 cells/well) in tissue culture treated round bottom 96-well plates (Corning Incorporated). Antagonist compounds (compounds of this invention) solubilized and serial diluted in 100% DMSO were added in duplicate to cells to yield a final concentration of 1% DMSO (v/v). PBMC were incubated with antagonist compounds for 30 minutes at 37° C., 5% CO2 before adding various TLR agonist reagents in 48 μL complete media per well as follows (final concentrations indicated): CpG ODN 2216 (InvivoGen) at […] for TLR9, ORN 06/LyoVec (InvivoGen) at 1 μg/mL for TLR8 and R848 (InvivoGen) at 1 μg/mL for TLR7 and TLR8. PBMC were incubated overnight at 37° C. with 5% CO2. Cell culture supernatants were collected, and levels of various human cytokines were assessed by Luminex assay (ProcartaPlex™ Multiplex Immunoassay, Invitrogen) or ELISA procedure according to the manufacturer's recommended protocol (eBioscience, ThermoFisher Scientific). Viability of the cells was also checked with Cell Viability Assay (CellTiter Glo® Luminescent Cell Viability Assay, Promega).

[2] = target: T2, hERG channel (Homo sapiens, UniProt Q12809); experiment: hERG channel inhibition assay (patch-clamp, CHOhERG cells); assay type: cell-based; settings: for IC50 / IC20: CHOhERG cells, whole-cell patch-clamp; for IC20: human, CHO cells stably expressing hERG (CHOhERG cells); for hERG IC20/TLR7 IC50 / hERG IC20/TLR8 IC50 / hERG IC20/TLR9 IC50: safety ratio, >30 suggests sufficient window
T2 construct: expressed in transfected cells; host or cells: CHO (Chinese hamster ovary), CHOhERG
T2 sequence (Q12809 whole entry): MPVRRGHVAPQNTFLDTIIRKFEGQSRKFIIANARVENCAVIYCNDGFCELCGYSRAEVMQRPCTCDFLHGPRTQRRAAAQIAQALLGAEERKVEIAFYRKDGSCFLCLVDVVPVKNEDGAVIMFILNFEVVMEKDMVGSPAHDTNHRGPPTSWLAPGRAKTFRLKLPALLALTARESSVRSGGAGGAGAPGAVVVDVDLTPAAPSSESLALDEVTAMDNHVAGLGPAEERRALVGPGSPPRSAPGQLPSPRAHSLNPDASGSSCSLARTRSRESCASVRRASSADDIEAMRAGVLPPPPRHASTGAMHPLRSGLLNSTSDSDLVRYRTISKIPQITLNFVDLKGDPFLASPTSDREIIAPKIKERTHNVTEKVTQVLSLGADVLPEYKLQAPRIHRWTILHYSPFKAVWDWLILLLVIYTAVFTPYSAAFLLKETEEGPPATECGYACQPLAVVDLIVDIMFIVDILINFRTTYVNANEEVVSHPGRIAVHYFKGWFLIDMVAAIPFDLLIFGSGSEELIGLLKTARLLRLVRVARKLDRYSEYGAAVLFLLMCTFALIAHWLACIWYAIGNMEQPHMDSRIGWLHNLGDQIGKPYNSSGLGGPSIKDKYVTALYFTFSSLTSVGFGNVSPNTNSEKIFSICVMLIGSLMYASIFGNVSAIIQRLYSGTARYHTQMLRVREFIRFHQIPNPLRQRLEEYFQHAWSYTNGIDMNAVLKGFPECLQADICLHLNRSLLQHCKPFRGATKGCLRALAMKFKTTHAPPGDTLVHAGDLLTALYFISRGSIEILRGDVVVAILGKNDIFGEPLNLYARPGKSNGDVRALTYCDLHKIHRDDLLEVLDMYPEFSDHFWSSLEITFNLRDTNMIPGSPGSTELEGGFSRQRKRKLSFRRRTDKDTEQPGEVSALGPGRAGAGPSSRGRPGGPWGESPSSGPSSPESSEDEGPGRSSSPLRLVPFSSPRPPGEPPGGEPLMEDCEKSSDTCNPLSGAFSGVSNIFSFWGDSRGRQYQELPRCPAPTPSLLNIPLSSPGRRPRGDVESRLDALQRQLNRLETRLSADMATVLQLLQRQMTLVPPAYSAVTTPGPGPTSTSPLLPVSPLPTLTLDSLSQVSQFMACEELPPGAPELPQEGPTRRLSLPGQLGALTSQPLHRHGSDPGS
Protocol: hERG Channel Inhibition Assay:
The hERG K^+ channels were cloned in humans and stably expressed in a CHO (Chinese hamster ovary) cell line. CHOhERG cells were used for patch-clamp (voltage-clamp, whole-cell) experiments. Cells were stimulated by a voltage pattern to activate hERG channels and conduct hERG currents (rapid delayed outward rectifier potassium current of the hERG channel). After the cells were stabilized for a few minutes, the amplitude and kinetics of IKhERG were recorded at a stimulation frequency of 0.1 Hz (6 bpm). Thereafter, the test compound was added to the preparation at increasing concentrations. For each concentration, an attempt was made to reach a steady-state effect, usually, this was achieved within 3-10 min at which time the next highest concentration was applied. The amplitude and kinetics of IKhERG are recorded in each concentration of the drug which were compared to the control values (taken as 100%). (references: Redfern W S, Carlsson L, Davis A S, Lynch W G, MacKenzie I, Palethorpe S, Siegl P K, Strang I, Sullivan A T, Wallis R, Camm A J, Hammond T G. 2003; Relationships between preclinical cardiac electrophysiology, clinical QT interval prolongation and torsade de pointes for a broad range of drugs: evidence for a provisional safety margin in drug development. Cardiovasc. Res. 58:32-45, Sanguinetti MC, Tristani-Firouzi M. 2006; hERG potassium channels and cardiac arrhythmia. Nature 440:463-469, Webster R, Leishman D, Walker D. 2002; Towards a drug concentration effect relationship for QT prolongation and torsades de pointes. Curr. Opin. Drug Discov. Devel. 5:116-26).

IC50 [1] [nM]	SMILES	IC50 [2] [µM]	IC20 [2] [µM]	hERG IC20/TLR7 IC50 [2]	hERG IC20/TLR8 IC50 [2]	hERG IC20/TLR9 IC50 [2]
346	C[C@@H]1CN(c2ccc(C#N)c3ncccc23)C[C@H](CN2CC(n3cc4c(n3)[C@H](C)CNC4)C2)O1 (single isomer, unassigned) [Example 25]					
235	C[C@@H]1CN(c2ccc(C#N)c3ncccc23)C[C@H](CN2CC(n3ncc4c3[C@@H](C)NCC4)C2)O1 (single isomer, unassigned) [Example 31]					
145	C[C@@H]1CN(c2ccc(C#N)c3ncccc23)C[C@H](CN2CC(n3ncc4c3[C@H](C)NCC4)C2)O1 (single isomer, unassigned) [Example 32]					
202	C[C@@H]1CN(c2ccc(C#N)c3ncccc23)C[C@H](CN2CC(n3cc4c(n3)[C@H](C)NCC4)C2)O1 (single isomer, unassigned) [Example 34]					
195	CCN1CCc2cn(C3CN(C[C@H]4CN(c5ccc(C#N)c6ncccc56)C[C@@H](C)O4)C3)nc2C1 [Example 7, 5-[(2S,6R)-2-[[3-(6-ethyl-5,7-dihydro-4H-pyrazolo[3,4-c]pyridin-2-yl)azetidin-1-yl]methyl]-6-methyl-morpholin-4-yl]quinoline-8-carbonitrile]					
113	C[C@@H]1Cc2nn(C3CN(C[C@H]4CN(c5ccc(C#N)c6ncccc56)C[C@@H](C)O4)C3)cc2CN1 [Example 17, 5-[(2R,6S)-2-methyl-6-[[3-[(6R)-6-methyl-4,5,6,7-tetrahydropyrazolo[4,3-c]pyridin-2-yl]azetidin-1-yl]methyl]morpholin-4-yl]quinoline-8-carbonitrile]					
97	C[C@@H]1CN(c2ccc(C#N)c3ncccc23)C[C@H](CN2CC(n3ncc4c3CCN[C@@H]4C)C2)O1 [Example 20, 5-[(2R,6S)-2-methyl-6-[[3-[(4R)-4-methyl-4,5,6,7-tetrahydropyrazolo[4,3-c]pyridin-1-yl]azetidin-1-yl]methyl]morpholin-4-yl]quinoline-8-carbonitrile]					
92	C[C@@H]1CN(c2ccc(C#N)c3ncccc23)C[C@H](CN2CC(n3cc4c(n3)CCN[C@@H]4C)C2)O1 [Example 21, 5-[(2R,6S)-2-methyl-6-[[3-[(4R)-4-methyl-4,5,6,7-tetrahydropyrazolo[4,3-c]pyridin-2-yl]azetidin-1-yl]methyl]morpholin-4-yl]quinoline-8-carbonitrile]					

The next lines start with the compound.

SMILES	IC50 [1] [nM]	IC50 [2] [µM]	IC20 [2] [µM]	hERG IC20/TLR7 IC50 [2]	hERG IC20/TLR8 IC50 [2]	hERG IC20/TLR9 IC50 [2]
C[C@@H]1CN(c2ccc(C#N)c3ncccc23)C[C@H](CN2CC(n3ncc4c3CN[C@@H](C)C4)C2)O1 (single isomer, unassigned) [Example 27]	81					
C[C@@H]1Cc2cnn(C3CN(C[C@H]4CN(c5ccc(C#N)c6ncccc56)C[C@@H](C)O4)C3)c2CN1 (single isomer, unassigned) [Example 28]	214					
C[C@@H]1CN(c2ccc(C#N)c3ncccc23)C[C@H](CN2CC(n3ncc4c3CCNC4)C2)O1 [Example 1, 5-[(2R,6S)-2-methyl-6-[[3-(4,5,6,7-tetrahydropyrazolo[4,3-c]pyridin-1-yl)azetidin-1-yl]methyl]morpholin-4-yl]quinoline-8-carbonitrile]		> 20	> 10	>1023.8	>584.4	>174.0
C[C@@H]1CN(c2ccc(C#N)c3ncccc23)C[C@H](CN2CC(n3cc4c(n3)CCNC4)C2)O1 [Example 2, 5-[(2R,6S)-2-methyl-6-[[3-(4,5,6,7-tetrahydropyrazolo[4,3-c]pyridin-2-yl)azetidin-1-yl]methyl]morpholin-4-yl]quinoline-8-carbonitrile]		> 20	> 10	>403.5	>538.4	>151.6
C[C@@H]1CN(c2ccc(C#N)c3ncccc23)C[C@H](CN2CC(n3cc4c(n3)CNC4)C2)O1 [Example 11, 5-[(2S,6R)-2-[[3-(5,6-dihydro-4H-pyrrolo[3,4-c]pyrazol-2-yl)azetidin-1-yl]methyl]-6-methyl-morpholin-4-yl]quinoline-8-carbonitrile]		> 20	> 10	>602.4	>531.9	>204.5
Cc1c2c(nn1C1CN(C[C@H]3CN(c4ccc(C#N)c5ncccc45)C[C@@H](C)O3)C1)CCN(C)C2 [Example 15, 5-[(2S,6R)-2-[[3-(3,5-dimethyl-6,7-dihydro-4H-pyrazolo[4,3-c]pyridin-2-yl)azetidin-1-yl]methyl]-6-methyl-morpholin-4-yl]quinoline-8-carbonitrile]	110					
C[C@@H]1CN(c2ccc(C#N)c3ncccc23)C[C@H](CN2CCC(n3ncc4c3CCNC4)CC2)O1 [Example 35, 5-[(2R,6S)-2-methyl-6-[[4-(4,5,6,7-tetrahydropyrazolo[4,3-c]pyridin-1-yl)-1-piperidyl]methyl]morpholin-4-yl]quinoline-8-carbonitrile]		> 20	> 10	>1924.5	>397.8	>121.4
C[C@@H]1CN(c2ccc(C#N)c3ncccc23)C[C@H](CN2CCC(n3cc4c(n3)CCNC4)CC2)O1 [Example 36, 5-[(2R,6S)-2-methyl-6-[[4-(4,5,6,7-tetrahydropyrazolo[4,3-c]pyridin-2-yl)-1-piperidyl]methyl]morpholin-4-yl]quinoline-8-carbonitrile]		> 20	10	566.6	246.7	180.7
